From ChEMBL document CHEMBL1201862, “PubChem BioAssay data set” (2004)
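Dose response: 5 concentrations. Exposure: 48 h. Format: 96-well plates. Endpoint: linear interpolation; highest concentration if not reached. GI50 is the concentration that inhibits growth by half.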 Calls of active or inactive are those of the source. Rule as the data show it: active = GI50 up to about 1.1 µM and inactive = higher.

Columns and labels:
Assay in all cases: NCI tumour cell line growth inhibition, 48 h
TK-10 = system: TK-10
Malme-3M = system: Malme-3M
MOLT-4 = system: MOLT-4
SF-268 = system: SF-268
M19-MEL = system: M19-MEL
HOP-92 = system: HOP-92
HOP-62 = system: HOP-62
NCI-H23 = system: NCI-H23
U-251 = system: U-251
SK-MEL-2 = system: SK-MEL-2
786-0 = system: 786-0
CCRF-CEM = system: CCRF-CEM
UO-31 = system: UO-31
A498 = system: A498
NCI-H226 = system: NCI-H226
MCF7 = system: MCF7
MDA-N = system: MDA-N
SR = system: SR
DU-145 = system: DU-145
MDA-MB-231 = system: MDA-MB-231

| SMILES | GI50 (TK-10) | GI50 (Malme-3M) | GI50 (MOLT-4) | GI50 (SF-268) | GI50 (M19-MEL) | GI50 (HOP-92) | GI50 (HOP-62) | GI50 (NCI-H23) | GI50 (U-251) | GI50 (SK-MEL-2) | GI50 (786-0) | GI50 (CCRF-CEM) | GI50 (UO-31) | GI50 (A498) | GI50 (NCI-H226) | GI50 (MCF7) | GI50 (MDA-N) | GI50 (SR) | GI50 (DU-145) | GI50 (MDA-MB-231) |
| --- | --- | --- | --- | --- | --- | --- | --- | --- | --- | --- | --- | --- | --- | --- | --- | --- | --- | --- | --- | --- |
| O=C1C2C(C(=O)N1c1ccccc1)C1(c3ccccc3)OC2(c2ccccc2)c2ccccc21 (stereo unspecified) | > 100 µM (inactive) | > 100 µM (inactive) | > 100 µM (inactive) | > 100 µM (inactive) | > 100 µM (inactive) | 1.93 µM (inactive) | > 100 µM (inactive) | > 100 µM (inactive) | > 100 µM (inactive) | > 100 µM (inactive) | > 100 µM (inactive) | > 100 µM (inactive) | > 100 µM (inactive) |  |  |  |  |  |  |  |
| O=C(O)C[C@@H](Cl)[C@H](NC(=O)OCc1ccccc1)C(=O)O | > 100 µM (inactive) | > 100 µM (inactive) | > 100 µM (inactive) | > 100 µM (inactive) | > 100 µM (inactive) | > 100 µM (inactive) | > 100 µM (inactive) | > 100 µM (inactive) | > 100 µM (inactive) | > 100 µM (inactive) | > 100 µM (inactive) | > 100 µM (inactive) | > 100 µM (inactive) | > 100 µM (inactive) | > 100 µM (inactive) |  |  |  |  |  |
| CN(C)C(=S)OC(Cn1cncn1)c1ccc(Cl)cc1Cl (stereo unspecified) | > 100 µM (inactive) | > 100 µM (inactive) | > 100 µM (inactive) | > 100 µM (inactive) | > 100 µM (inactive) | 72.8 µM (inactive) | > 100 µM (inactive) | > 100 µM (inactive) | > 100 µM (inactive) | > 100 µM (inactive) | > 100 µM (inactive) |  | > 100 µM (inactive) | > 100 µM (inactive) | > 100 µM (inactive) |  |  |  |  |  |
| O=C1CSc2cc([N+](=O)[O-])ccc2N1 | > 100 µM (inactive) | > 100 µM (inactive) | > 100 µM (inactive) | > 100 µM (inactive) | > 100 µM (inactive) |  | > 100 µM (inactive) | > 100 µM (inactive) | > 100 µM (inactive) | > 100 µM (inactive) | > 100 µM (inactive) | > 100 µM (inactive) |  | > 100 µM (inactive) | > 100 µM (inactive) |  |  |  |  |  |
| CC(C)(CO)NC1=C(Cl)C(=O)c2c(O)ccc(O)c2C1=O | 1.88 µM (inactive) | 1.87 µM (inactive) | 0.568 µM (active) | 2.61 µM (inactive) |  | 1.85 µM (inactive) | 1.56 µM (inactive) | 1.58 µM (inactive) | 1.73 µM (inactive) | 2.32 µM (inactive) | 1.46 µM (inactive) | 0.33 µM (active) | 1.55 µM (inactive) | 1.84 µM (inactive) | 2.16 µM (inactive) | 1.33 µM (inactive) | 0.885 µM (active) | 0.267 µM (active) | 1.9 µM (inactive) | 1.61 µM (inactive) |
| COc1cc(/C=C(\C)[N+](=O)[O-])cc(OC)c1 | 11.8 µM (inactive) | 14.8 µM (inactive) | 2.57 µM (inactive) | 19.3 µM (inactive) |  | 13.5 µM (inactive) | 19.2 µM (inactive) | 19.1 µM (inactive) | 17.7 µM (inactive) | 17.2 µM (inactive) | 4.59 µM (inactive) | 2.4 µM (inactive) | 15.6 µM (inactive) | 8.05 µM (inactive) | > 52.5 µM (inactive) | 6.73 µM (inactive) | 13 µM (inactive) | 3.01 µM (inactive) | 18.7 µM (inactive) | 16.7 µM (inactive) |
| CC#CC(=O)Nc1ccccc1CC(c1c[nH]c2ccccc12)c1c[nH]c2ccccc12 | 29.9 µM (inactive) | 16.6 µM (inactive) | 5.68 µM (inactive) | 22.7 µM (inactive) | 15.3 µM (inactive) |  | 20 µM (inactive) | 18.8 µM (inactive) |  | 18.2 µM (inactive) | 18.3 µM (inactive) | 11.3 µM (inactive) | 7.19 µM (inactive) |  | 15.5 µM (inactive) |  |  |  |  |  |
| O=C(O)c1c(CC(Cc2ccc3c(c2)CCCC3)C(=O)O)ccc2c1CCCC2 (stereo unspecified) | > 100 µM (inactive) | > 100 µM (inactive) | > 100 µM (inactive) | > 100 µM (inactive) |  | > 100 µM (inactive) | > 100 µM (inactive) | > 100 µM (inactive) | > 100 µM (inactive) | > 100 µM (inactive) | > 100 µM (inactive) | > 100 µM (inactive) | > 100 µM (inactive) | > 100 µM (inactive) | > 100 µM (inactive) | < 0.01 µM (active) | > 100 µM (inactive) | > 100 µM (inactive) | > 100 µM (inactive) | > 100 µM (inactive) |
| CC1(c2ccc(F)cc2)CC(c2ccc(F)cc2)=C(C#N)C(=C(C#N)C#N)N1 (stereo unspecified) | 18.1 µM (inactive) | 18.7 µM (inactive) | 14.4 µM (inactive) | 15.8 µM (inactive) |  | 12.6 µM (inactive) | 19.7 µM (inactive) | 17.3 µM (inactive) | 16.6 µM (inactive) | 16 µM (inactive) | 15.3 µM (inactive) | 2.11 µM (inactive) | 17.1 µM (inactive) | 19.6 µM (inactive) | 21.2 µM (inactive) | 14.5 µM (inactive) | 17.4 µM (inactive) | 14.9 µM (inactive) | 15.2 µM (inactive) | 21.2 µM (inactive) |
| CCOC(=O)C1(C(=O)OCC)C[C@@H](C)[C@@H](O)C1 | > 100 µM (inactive) | 72.1 µM (inactive) | > 100 µM (inactive) | > 100 µM (inactive) |  | > 100 µM (inactive) | > 100 µM (inactive) | > 100 µM (inactive) | > 100 µM (inactive) | > 100 µM (inactive) | > 100 µM (inactive) | > 100 µM (inactive) | > 100 µM (inactive) | > 100 µM (inactive) | > 100 µM (inactive) | > 100 µM (inactive) | > 100 µM (inactive) | > 100 µM (inactive) | > 100 µM (inactive) | > 100 µM (inactive) |
| C[C@@H](NS(=O)(=O)c1ccc(NC(=O)c2ccccc2)cc1)C(=O)O | > 100 µM (inactive) | > 100 µM (inactive) | > 100 µM (inactive) | > 100 µM (inactive) | > 100 µM (inactive) | > 100 µM (inactive) |  | > 100 µM (inactive) | > 100 µM (inactive) | > 100 µM (inactive) | > 100 µM (inactive) | > 100 µM (inactive) | > 100 µM (inactive) | > 100 µM (inactive) |  |  |  |  |  |  |
| CSc1ncnc2c1cnn2Cc1cn(CCCCO)nn1 | > 100 µM (inactive) | > 100 µM (inactive) | > 100 µM (inactive) | > 100 µM (inactive) |  | > 100 µM (inactive) | > 100 µM (inactive) | > 100 µM (inactive) | > 100 µM (inactive) | > 100 µM (inactive) | > 100 µM (inactive) | > 100 µM (inactive) | > 100 µM (inactive) | > 100 µM (inactive) | > 100 µM (inactive) | > 100 µM (inactive) | > 100 µM (inactive) | > 100 µM (inactive) | > 100 µM (inactive) | > 100 µM (inactive) |
| COc1ccc(C(OCC2OC(n3cc(C)c(=O)[nH]c3=O)CC2n2cc(Cn3cc(Br)c(=O)[nH]c3=O)nn2)(c2ccccc2)c2ccccc2)cc1 (stereo unspecified) | > 100 µM (inactive) | > 100 µM (inactive) | 4.36 µM (inactive) | > 100 µM (inactive) |  | > 100 µM (inactive) | > 100 µM (inactive) | > 100 µM (inactive) | 66.5 µM (inactive) | > 100 µM (inactive) | > 100 µM (inactive) | 2.53 µM (inactive) | > 100 µM (inactive) | > 100 µM (inactive) | > 100 µM (inactive) | 16 µM (inactive) | 21 µM (inactive) | > 100 µM (inactive) | > 100 µM (inactive) | > 100 µM (inactive) |
| N#CC(C(=O)CCC(=O)Nc1ccc(Cl)cc1)c1ccc(Cl)cc1 (stereo unspecified) | > 100 µM (inactive) | > 100 µM (inactive) | > 100 µM (inactive) | 93.3 µM (inactive) | > 100 µM (inactive) | > 100 µM (inactive) | > 100 µM (inactive) | > 100 µM (inactive) | > 100 µM (inactive) | > 100 µM (inactive) | > 100 µM (inactive) | > 100 µM (inactive) | > 100 µM (inactive) | > 100 µM (inactive) | > 100 µM (inactive) |  |  |  |  |  |
| COc1ccc(N2N=NN(C(C)C)/C2=C(/Cl)c2nnnn2-c2ccc(OC)cc2)cc1 | 16.2 µM (inactive) | 11.4 µM (inactive) | 4.61 µM (inactive) | 16.2 µM (inactive) |  | 2.25 µM (inactive) | 21 µM (inactive) | 16.8 µM (inactive) | 17.5 µM (inactive) | 13.4 µM (inactive) | 2.76 µM (inactive) | 1.83 µM (inactive) | 5.97 µM (inactive) | 16 µM (inactive) | 20.2 µM (inactive) | 9.46 µM (inactive) | 13.6 µM (inactive) | 2.98 µM (inactive) | 8.11 µM (inactive) | 9.14 µM (inactive) |
| COC(=O)c1c2c(cc3c1CC1(C3)Cc3cc4c(c(C(C)=O)c3C1)CCC4)C=CC2 (stereo unspecified) | > 31.6 µM (inactive) | > 10 µM (inactive) | > 31.6 µM (inactive) | > 31.6 µM (inactive) |  | > 31.6 µM (inactive) | > 31.6 µM (inactive) | > 31.6 µM (inactive) | > 31.6 µM (inactive) | > 31.6 µM (inactive) | > 31.6 µM (inactive) | 20.7 µM (inactive) | 24.3 µM (inactive) | > 31.6 µM (inactive) | > 31.6 µM (inactive) | 22.2 µM (inactive) | > 10 µM (inactive) | 20.8 µM (inactive) | > 31.6 µM (inactive) | > 20.7 µM (inactive) |
